Results as given in patent US9579344B2, “Use of nitrite salts in treating tissue damage” (Board of Supervisors of Louisiana State University and …, priority 2009, dated 2017).
Like-named read-outs stand apart in the source and are kept apart here.

Tests used:
C2C12 myoblasts = system: C2C12 myoblasts
Excerpt: (§1) A contained hypoxia tissue culture system was used allowing the long term culturing of cells in hypoxia (24 hrs). A fluorescent plate reader in hypoxic chamber measured NO formation using the fluorescent dye DAF-FM.

[1] = aged diabetic mice
Excerpt: (§2) B6.BKS-Lepr^db/db diabetic mice were purchased from Jackson's laboratory and housed in the animal center of LSU Health Sciences Center for 6 months. Surgical hind limb ischemia was created in 9 month-old male (Db/Db) type-2 diabetic mice. The mice were anesthetized by isoflurane inhalation and the left groin area was shaved and naired. The left external iliac artery and vein, left femoral artery and vein, left saphenous artery and vein and deep femoral and circumflex arteries and veins were ligated, cut, and excised to obtain a mouse model of critical hind limb ischemia. […] All treatments were performed in a double-blinded manner.
Blood glucose measurements were taken using Ascensia Elite blood glucose test strips and a Bayer Glucometer Elite.
Plasma total cholesterol and LDL levels were determined using a Siemens Vista Clinical Chemistry analyzer.

[2] = system: ischemic hindlimbs of aged diabetic mice; settings: PBS controls showed extensive necrosis and digit loss
Excerpt: as §2

[3] = system: gastrocnemius muscles of aged diabetic mice; settings: non-ischemic tissues of aged diabetic mice (FIG. 21B)
Excerpt: as §2
The gastrocnemius muscles from ischemic and non-ischemic hind limbs were removed, dissected, and embedded in OCT freezing medium. Frozen tissue blocks were cut into 5 μm sections and slides prepared. A primary antibody against PECAM-1 was added at a 1:200 dilution along with anti-Ki67 (1:350 dilutions) and incubated at 37° C. for 1 hour. Slides were then washed and a Cy3 conjugated secondary antibody was added at a 1:250 dilution along with anti-rabbit Ig antibody at a 1:150 dilution and incubated at room temperature for 1 hour. Slides were once again washed and mounted with cover slips using Vectashield DAPI. […] Cellular proliferation was determined as the ratio between regions positive for Ki67 and DAPI positive area.

cultured cells = settings: hypoxic and normoxic conditions, 100 nM or 1 uM sodium nitrite (FIG. 16)
Description: FIG. 16 depicts the chemiluminescent detection of nitrite/nitric oxide during hypoxia.
(§3) The effect of specific inhibitors of NO production, carboxy PTIO (2-(4-Carboxyphenyl)-4,4,5,5-tetramethylimidazoline-1-oxyl-3-oxide), allopurinol and L-NAME, was also analyzed. […] Results for iliac vein smooth muscle cells are shown in FIGS. 7A, 7B and 8; results for aortic smooth muscle cells are shown in FIGS. 9A, 9B and 10; results for coronary artery cells are shown in FIGS. 11A, 11B and 12, results for umbillical vein cells are shown in FIGS. 13A, 13B and 14.

[4] = system: ischemic hind limb of B6.BKS-Lepr^db/db diabetic mice; settings: aged diabetic mice, 165 ug/kg
Excerpt: as §2
Laser Doppler blood flows were measured using a Vasamedics Laserflo BPM2 device in the gastrocnemius pre-ligation, post-ligation and on days 1, 3, 5, 7, 9, 11, 13, 15, 17, 19 and 21 post-ligation. Blood vessels visible through the skin were avoided to ensure readings indicative of muscle blood flow. Measurements were recorded as milliliter of blood flow per 100 grams of tissue per minute. Percent blood flows were calculated as: a/b××100 where a=ischemic limb average flow and b=non-ischemic limb average flow.

[5] = system: ischemic tissue gene expression
Description: (§4) Hind limb ischemia was induced by ligating the left common femoral artery proximal to origin of profunda femoris artery according to Senthilkumar, A., Smith, R. D., Khitha, J., Arora, N., Veerareddy, S., Langston, W., Chidlow, 1H., Jr., Barlow, S. c., Teng, x., Patel, R. P., et al. 2007. Arterioscler Thromb Vasc Biol 27: 1947-1954. Mice were anesthetized with intraperitoneal injection of ketamine (100 mglkg) and xylazine (8 mglkg); surgery was performed under aseptic conditions. The common femoral vein and femoral nerve were dissected away from the artery. Two ligatures were placed in the common femoral artery proximal to the profunda femoris artery and then transected between the two ligations. The incision was then closed and the ligation was immediately verified by laser Doppler measurement of tissue blood flow.
RNA integrity was checked using the Agilent 2100 Bioanalyzer (Agilent Technologies, Palo Alto, Calif.). […] Double stranded cDNA was synthesized from 5 ug total RNA using a Superscript cDNA synthesis Kit (Invitrogen, Carlsbad, Calif.) and purified using the Gene Chip Sample Cleanup Module (Affymetrix, Santa Vlara, Calif.). After biotin-labeling, the cDNA were fragmented at 94° C. and hybridized to the GeneChip® Mouse Genome 430 2.0 Array (Affymetrix), which contains 39,000 fully annotated transcripts of the mouse genome. After washing and staining, the arrays were scanned using GeneChip Scanner 3000 (Affymetrix) and hybridization efficiency determined by housekeeping control and spike control probe sets.
Array data were globally scaled to a target intensity value of 500 to compare individual array experiments. To determine differentially expressed genes between PBS and nitrite treatment, data were log transformed and uploaded into Genesifter program (www.genesifter.net). Identification of significant changes in gene expression were determined using a pair-wise comparison of PBS versus nitrite therapy gene array data at each individual time point with the following criteria: a minimal 2-fold difference in expression with no maximal threshold limit, a hybridization quality cutoff of 1, and an unpaired student t-test between treatment groups followed by Benjamini and Hochberg post test to limit false discovery rates.
The resulting output of network analysis was broken down according to the genetic composition of networks, the biological function of the networks, the number of interrelated network relationships, as well as statistical analysis of individual networks.
Induction of chronic hind limb ischemia was performed according to the method in Example 1. […] Nitrite doses were given once in the morning (8 am) and a second in the afternoon (5 pm) with muscle tissue harvested on the morning of the 4th and 8th days (to give an entire 3 and 7 day period for study). Four muscle specimens from individual mice were harvested per treatment cohort per time point for a total of 16 individual specimens for gene array analysis. Harvested tissue was immediately frozen in liquid nitrogen for subsequent total RNA isolation. Laser doppler blood flow measurements were taken from non-ischemic and ischemic hind limbs prior to tissue collection to determine the amount of ischemic tissue perfusion using a Vasamedics Laserflo BPM2 deep tissue penetrating doppler device. Percent restoration of blood flow was determined by dividing the ischemic hind limb blood flow by the non-ischemic hind limb blood flow and multiplying by 100. Statistical analysis of changes in tissue blood flow between treatment groups at specific time points were performed with an unpaired students t-test using Prism software (Graphpad).

C2C12 myoblast cells = settings: hypoxic conditions
[6] = system: ischemic hindlimbs of C57Bl/6J mice; settings: fluorescence angiograms, 4 seconds blush time, vs PBS
Description: as §4

[7] = system: iliac vein smooth muscle cells, aortic smooth muscle cells
Description: as §1, §3

[8] = system: coronary artery endothelial cells, umbilical vein endothelial cells
Description: as §1, §3

[9] = cardiovascular development and function, skeletal muscle development, tissue development
[10] = cellular assembly and organization, carbohydrate metabolism, molecular transport
[11] = day 3, 165 μg/kg twice daily i.p., vs PBS
[12] = day 3, Ingenuity network analysis
[13] = day 7, 165 μg/kg twice daily i.p., vs PBS
[14] = inflammatory response, neurological disease, cellular development

Q: With `O=NO` [sodium nitrite] as the molecule, how does the “levels of NO” value (C2C12 myoblasts; 0.01 uM sodium nitrite, only in hypoxic conditions (FIG. 24B)) read?
A: significantly increased

Q: And the NO levels (C2C12 myoblasts; 100 uM sodium nitrite (FIG. 24A))?
A: did not alter

Q: What about the body weight ([1]; delayed chronic treatment (FIG. 18A)) of the same molecule?
A: did not alter

Q: What about the blood glucose levels ([1]; delayed chronic treatment (FIG. 18B)) of the same molecule?
A: did not alter

Q: What about the serum cholesterol ([1]; delayed chronic treatment (FIG. 19A)) of the same molecule?
A: significantly decreased

Q: And the “serum LDL” value ([1]; delayed chronic treatment (FIG. 19B))?
A: significantly decreased

Q: And the digit loss [2]?
A: no digit loss

Q: What about the necrosis [2] of the same molecule?
A: minimal necrosis

Q: What about the epithelial cell proliferation [3] of the same molecule?
A: but not non-ischemic tissues

Q: And the “intracellular NO levels” value (cultured cells)?
A: lower concentrations, but not higher concentrations, of sodium nitrite resulted in a significant increase

Q: What about the “blood flow in ischemic hind limbs compared with PBS-treated control animals” value ([4]; all time points analyzed) of the same molecule?
A: significantly greater

Q: What about the “blood flow in ischemic hind limbs relative to preligation” value ([4]; by the end of the study) of the same molecule?
A: approached preligation levels

Q: And the “ischemic hind-limb blood flow” value ([4]; treatment delayed to five days after surgery)?
A: restored

Q: What about the “genes enhanced, FIG. 2 network” value ([5]; antigen presentation, cell mediated immunity, humoral mediated immunity) of the same molecule?
A: calsequestrin 2, GST alpha 5, and solute carrier family member 25

Q: And the “genes inhibited, FIG. 6 network” value ([5]; cancer, nervous system development and function, tissue morphology)?
A: glycerol-3-phosphate dehydrogenase and protein phosphatase 2, reg subunit B

Q: And the “genes enhanced, FIG. 3 network” value [5, 9]?
A: CXCR6, VE-cadherin, DIX domain containing 1, myosin, heavy chain 2, myosin, light chain 2, myosin, light chain 4, myosin, light chain 9, P2rY2, paired like homeodomain 2, troponin C, type 1, troponin T, type 2 and vitronectin

Q: What about the “genes inhibited, FIG. 3 network” value [5, 9] of the same molecule?
A: Rho Gtpase activating protein 17, CCR5, CXCL12, CXCL7, formin binding protein 1, G protein coupled receptor 65, 5-HT receptor 2B, serine/threonine kinase 17b and thrombospondin 2

Q: What about the “genes enhanced, FIG. 1 network” value ([5]; cardiovascular system development and function, tissue morphology, carbohydrate metabolism) of the same molecule?
A: flavin containing monoxygenase 5, smoothelin like 1, mysoin heavy chain 7, CUB zona pellucida like domains 1 and small proline rich protein 1A

Q: What about the “genes enhanced, FIG. 4 network” value [5, 10] of the same molecule?
A: cyclin M4, EH domain containing 2, myosin heavy chain 7, myosin light chain 9 regulatory, popeye domain containing 2 and TEA domain family member 4

Q: And the “genes inhibited, FIG. 4 network” value [5, 10]?
A: adipose differentiated-related protein, chitinase 3-like 3, kinesin family member 20B, leukocyte specific transcript 1, RNA binding motif protein 47 and sorting nexin 6

Q: And the genes down-regulated [5, 11]?
A: 346 genes

Q: And the genes up-regulated [5, 11]?
A: 111 genes

Q: What about the “expression of genes associated with innate and acquired immune responses (FIG. 1)” value [5, 12] of the same molecule?
A: inhibited

Q: What about the “expression of genes involved in antigen presentation, cell mediated immunity, and humoral mediated immunity (FIG. 2)” value [5, 12] of the same molecule?
A: altered

Q: And the “expression of genes involved in cardiovascular development and function, skeletal muscle development, and tissue development (FIG. 3)” value [5, 12]?
A: altered

Q: What about the “expression of genes involved in cardiovascular system development and function, tissue morphology, and carbohydrate metabolism (FIG. 1)” value [5, 12] of the same molecule?
A: enhanced

Q: And the “expression of genes involved in cellular assembly and organization, carbohydrate metabolism and molecular transport (FIG. 4)” value [5, 12]?
A: altered

Q: And the “expression of genes involved in inflammatory response, neurological disease and cellular development (FIG. 5)” value [5, 12]?
A: altered

Q: And the “distinct gene expression profiles significantly altered” value ([5]; day 3 of ischemia, 165 μg/kg twice daily i.p., vs PBS, minimal 2-fold difference)?
A: 457

Q: And the “expression of genes associated with tissue remodeling” value ([5]; day 7)?
A: enhanced

Q: What about the genes down-regulated [5, 13] of the same molecule?
A: 55 genes

Q: What about the genes up-regulated [5, 13] of the same molecule?
A: 219 genes

Q: And the “expression of genes involved in cancer, nervous system development and function and tissue morphology (FIG. 6)” value ([5]; day 7, Ingenuity network analysis)?
A: altered

Q: And the “genes with differentially impacted expression profile” value ([5]; day 7 of ischemia, 165 μg/kg twice daily i.p., vs PBS)?
A: 274 genes

Q: And the “genes enhanced, FIG. 5 network” value [5, 14]?
A: glycogen syntase 1 (muscle), kin of IRRE like 3, solute carrier family 16, member 3, solute carrier family 8, member 3 and uridine-cytidine kinase 2

Q: What about the “genes inhibited, FIG. 5 network” value [5, 14] of the same molecule?
A: C-type lectin domain family 5, A, FERM domain containing 4B, receptor (G protein coupled) activity modifying protein 2, signal-regulatory protein beta 1, solute carrier family 15, member 3 and zinc finger E-box binding homeobox 2

Q: What about the “myogenin mRNA levels” value ([5]; ischemic mouse hindlimb gastrocnemius muscle, nitrite-treated animals (FIG. 25A)) of the same molecule?
A: significantly increased

Q: And the “myogenin mRNA” value (C2C12 myoblast cells; decreasing levels of sodium nitrite, inversely correlated with nitrite concentration)?
A: dose-dependent increase

Q: What about the “levels of myogenin mRNA” value (C2C12 myoblast cells; lowest dose 0.01 uM sodium nitrite) of the same molecule?
A: highest

Q: And the arteriogenesis [6]?
A: significantly increased

Q: And the “DAF fluorescence (NO formation)” value ([7]; higher concentrations of exogenous nitrite required)?
A: large increases in DAF fluorescence

Q: What about the “nitrite reduction to NO” value ([7]; hypoxic conditions (1% oxygen)) of the same molecule?
A: reduced nitrite to NO

Q: What about the “nitrite reduction to NO, concentration dependence” value [8] of the same molecule?
A: reduced nitrite to NO at lower concentrations of exogenous nitrite

Q: What about the “nitrite reduction to NO” value ([8]; hypoxic conditions (1% oxygen)) of the same molecule?
A: reduced nitrite to NO
